Laboratory results published in PubChem BioAssay (NCI).
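Cultured in 96-well plates, cells were exposed to test compound for 48 hours across five concentrations. GI50 marks 50% less growth. TGI denotes the concentration required for complete inhibition of growth.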

Columns and labels:
Assay in all cases: NCI tumour cell line growth inhibition, 48 h
786-0 renal = system: 786-0 renal
UACC-257 melanoma = system: UACC-257 melanoma
MOLT-4 leukemia = system: MOLT-4 leukemia
SNB-19 CNS = system: SNB-19 CNS
OVCAR-4 ovarian = system: OVCAR-4 ovarian
U251 CNS = system: U251 CNS
OVCAR-5 ovarian = system: OVCAR-5 ovarian
HL-60(TB) leukemia = system: HL-60(TB) leukemia
MDA-MB-231 breast = system: MDA-MB-231 breast
MDA-MB-435 = system: MDA-MB-435

Compound	TGI (786-0 renal) [µM]	TGI (UACC-257 melanoma) [µM]	TGI (MOLT-4 leukemia) [µM]	TGI (SNB-19 CNS) [µM]	TGI (OVCAR-4 ovarian) [µM]	TGI (U251 CNS) [µM]	TGI (OVCAR-5 ovarian) [µM]	GI50 (786-0 renal) [µM]	GI50 (UACC-257 melanoma) [µM]	GI50 (MOLT-4 leukemia) [µM]	GI50 (HL-60(TB) leukemia) [µM]	TGI (HL-60(TB) leukemia) [µM]	GI50 (SNB-19 CNS) [µM]	GI50 (OVCAR-4 ovarian) [µM]	GI50 (OVCAR-5 ovarian) [µM]	TGI (MDA-MB-231 breast) [µM]	TGI (MDA-MB-435) [µM]	GI50 (MDA-MB-231 breast) [µM]	GI50 (MDA-MB-435) [µM]	GI50 (U251 CNS) [µM]
CC1=Nc2ccccc2S/C1=C1/C=NC(=NC#N)N=C1C(=O)Nc1cccc(Cl)c1	> 100	> 100	> 100	> 100	> 100	> 100	> 100	–	–	–	–	–	–	–	–	–	–	–	–	–
CC(=O)[CH-]C(=O)c1ccccc1.CC(=O)[CH-]C(=O)c1ccccc1.Cl.[O-]CCc1ccccn1.[O-]CCc1ccccn1.[Ti+4]	57	> 100	49.3	49	> 100	–	> 100	21.2	28.3	13.3	21.2	93.5	19.6	41.4	43.3	–	–	–	–	–
COc1cc2c3c(c4ccc(O)cc4c2cc1OC)[C@@H](O)[C@@H]1CCCN1C3	0.0257	0.0588	–	0.00216	0.00239	0.00241	0.0454	–	–	–	–	4.74	–	–	–	0.0078	0.0072	–	–	–
O=C1CCNC/C1=C\c1ccccc1	29	58.8	> 100	46.4	31.3	38	81.3	–	–	–	–	47.7	–	–	–	–	–	–	–	–
COc1cc2c(c3oc4c(O)cccc4c(=O)c13)CC(C(C)(O)CCl)O2 (configuration not stated)	12.8	6.79	–	20.9	8.18	12.5	34	–	–	–	–	–	–	–	–	5.6	1.55	–	–	–
O=C1N(c2ccc(Cl)cc2)C(=O)C2(SC=NN2Cc2ccccc2)N1c1ccc(Cl)cc1 (configuration not stated)	> 100	> 100	> 100	> 100	> 100	> 100	–	–	–	–	–	> 100	–	–	–	–	–	–	–	–
N#C/C(=C/c1ccc([N+](=O)[O-])o1)c1ccccc1	> 100	> 100	> 100	> 100	> 100	> 100	> 100	–	–	–	–	> 100	–	–	–	–	–	–	–	–
Nc1nc(N)c(CCCCc2ccc([N+](=O)[O-])cc2)c(N)n1	> 100	> 100	> 100	> 100	> 100	> 100	> 100	–	–	–	–	> 100	–	–	–	> 100	–	–	–	–
Cc1ccc2nc(CN(CCN(Cc3nc4ccc(C)cc4[nH]3)Cc3nc4ccc(C)cc4[nH]3)Cc3nc4ccc(C)cc4[nH]3)[nH]c2c1	3.15	3.24	–	3.07	–	2.97	3	1.75	1.81	–	–	–	1.7	–	1.63	3.3	2.98	1.88	1.62	1.61
COc1ccc([C@@H]2[C@@H](Cl)C(=O)N2c2cc(OC)c(OC)c(OC)c2)cc1C	21.6	97.3	> 100	> 100	> 100	17.5	> 100	0.0643	15.7	0.181	0.0272	0.0767	0.0535	0.769	0.305	42.1	–	0.163	–	0.044
